This passage reports inhibition and IC50 results from patent US12692255B2, “Adenosine 2A receptor modulators for use in the treatment of cancer” (UNIVERSITE DE GENEVE, priority 2022, dated 2026).

Structures are written as SMILES. Read-outs that look alike come from different tables or passages of the source. Where only a bound is given, the exact number is not on record here.

One may read the IC50 as the concentration that inhibits the measured activity by half.

The subject of experiment [1] is pCREB in gated human CD4+ cells. In words: Intracellular pCREB by flow cytometry in NECA-treated PBMCs, gated CD4+ T cells. The conditions noted are these: read-out: Activity (reduction of pCREB, restoration to normal physiological levels). In kind it is cell-based. The protocol: (§1) Human peripheral blood mononuclear cells (PBMCs) were isolated using density centrifugation from fresh whole blood of healthy human blood donors. Cells were cryopreserved and thawed and rested for several hours in complete cell culture media containing human albumin and antibiotics (penicillin and streptomycin; 100 units or mg per ml respectively). […] DMSO was used as the storage diluent for concentrated A2AR antagonists. NECA and DMSO controls (% v/v) were also tested in parallel to the therapeutic candidates. After the indicated incubation time with NECA, cells were either stained to determine their intracellular level of pCREB, or activated with Dynabeads overnight before staining for intracellular cytokines, as described below.
(§2) PBMCs that were cultured with A2AR antagonists in the presence of NECA and were subsequently fixed and permeabilized using ice cold paraformaldehyde and methanol-based kit reagents (ThermoFisher and Miltenyi, respectively). […] Stained cells were acquired using a Fortessa flow cytometer (BD). Gating of the desired cell subsets was performed using FSC-A vs FSC—H to remove doublet cells, FSC vs SSC parameters to identify cells with lymphocyte-like morphology, followed by CD3^+ T cell and CD4^+ or CD8^+ sub-gating. The fold change in mean fluorescence intensity (MFI) of intracellular pCREB in gated CD4 or CD8^+ T cells was calculated using NECA-only conditions, and divided by NECA and A2AR antagonist-cultured cells from the same donor. The overall activity of the tested compounds was calculated using the average of at least 3 donors.
(§3) Compounds of the invention were tested in physiological conditions using healthy human peripheral blood mononuclear cells as well as in the presence of human albumin to increase the physiological relevance of the assay. […] The activity scale represented is the average for at least 3 donors, compared to the NECA-only control.
In general terms: Flow cytometry measures light scatter and fluorescence of single cells or particles in a stream.

Experiment [2] deals with pCREB in gated human CD8+ cells. Briefly: Intracellular pCREB by flow cytometry in NECA-treated PBMCs, gated CD8+ T cells. The conditions noted are these: read-out: Activity (reduction of pCREB, restoration to normal physiological levels). In kind it is cell-based. The method, then: as §1, §2, §3
For experiment [3], the target named is A2AR (Homo sapiens, UniProt P29274). Briefly: cAMP biosensor antagonist potency assay in CHO cells expressing recombinant A2AR.
Sequence of A2AR (P29274 whole entry): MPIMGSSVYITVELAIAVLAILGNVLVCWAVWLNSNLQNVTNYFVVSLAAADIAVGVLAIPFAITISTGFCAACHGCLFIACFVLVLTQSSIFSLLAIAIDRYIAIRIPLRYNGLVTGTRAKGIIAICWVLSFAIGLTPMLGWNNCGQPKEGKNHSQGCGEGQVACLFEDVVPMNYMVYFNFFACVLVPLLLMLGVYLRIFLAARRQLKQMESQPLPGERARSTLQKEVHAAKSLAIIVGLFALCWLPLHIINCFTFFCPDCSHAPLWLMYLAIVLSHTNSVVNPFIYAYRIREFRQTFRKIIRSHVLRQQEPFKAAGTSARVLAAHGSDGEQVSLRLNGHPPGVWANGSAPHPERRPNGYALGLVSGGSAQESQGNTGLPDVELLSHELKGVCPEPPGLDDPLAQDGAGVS
Experimental: Chinese Hamster Ovary (CHO) cells containing an in-house cAMP-based biosensor, described below, and expressing recombinant A2AR were used to characterize the potency of A2AR antagonists according to the invention. The biosensor contains a cAMP binding domain allowing the measurement of Gs and Gi-coupled receptors activation. Cells were treated in a 384 well plate with the indicated concentrations of A2AR antagonists, followed by the addition of an A2AR agonist, adenosine. cAMP levels were measured on a luminescent/fluorescent plate reader.
CHO cells expressing A2AR and the biosensor were seeded in a black 384-well plate (Nunc) and grown at 37° C. and 5% CO2 overnight. […] The cAMP biosensor allowed real-time monitoring of signals using an FDSS/μCELL (Hamamatsu). The assay was conducted in 1× Hanks Balanced Salt Solution (HBSS). The total volume of the reaction was 80 μl (45 μl of cells, 15 μl of antagonist and 20 μl of agonist). Data analysis was performed using GraphPad Prism.
The mark [4] stands for this setting: compound at 1 μM, 5 µM NECA, gated human CD4+ cells, average of at least 3 donors vs NECA-only control.
The mark [5] stands for this setting: compound at 1 μM, 5 µM NECA, gated human CD8+ cells, average of at least 3 donors vs NECA-only control.

Regarding `Nc1nc(-n2cccn2)nc(-n2cccn2)c1Br` [Taminadenant, 5-bromo-2,6-di(pyrazol-1-yl)pyrimidin-4-amine, reference compound], the inhibition at 1 µM in experiment [1] (setting [4]) and in experiment [2] (setting [5]) was 0 to 40% in each case.

Regarding `N#Cc1c(N)nc(N2CCCCC2)c(C#N)c1-c1cccc(-c2cccc(F)n2)c1` [Compound 25, 2-amino-4-(3-(6-fluoropyridin-2-yl)phenyl)-6-(piperidin-1-yl)pyridine-3,5-dicarbonitrile], in experiment [3], the IC50 is < 200 nM.

In the case of `N#Cc1c(N)nc(N2CCCCC2)c(C#N)c1-c1cccc(-c2cc(F)ccn2)c1` [Compound 26, 2-amino-4-(3-(4-fluoropyridin-2-yl)phenyl)-6-(piperidin-1-yl)pyridine-3,5-dicarbonitrile], the IC50 in experiment [3] fell in the range of 200 to 1000 nM.

Take `N#Cc1c(N)nc(N2CCOCC2)c(C#N)c1-c1cccc(-c2ccccc2)c1` [Compound 18, 4-([1,1′-biphenyl]-3-yl)-2-amino-6-morpholinopyridine-3,5-dicarbonitrile]: the half-inhibitory concentration (IC50) in experiment [3] is 200 to 1000 nM.

Regarding `N#Cc1c(N)nc(N2CCCCC2)c(C#N)c1-c1cc(-c2cccnc2)ccc1F` [Compound 29, 2-amino-4-(2-fluoro-5-(pyridin-3-yl)phenyl)-6-(piperidin-1-yl)pyridine-3,5-dicarbonitrile], the IC50 in experiment [3] is < 200 nM.

Regarding `N#Cc1c(N)nc(N2CCCCC2)c(C#N)c1-c1cccc(-c2ccccc2F)c1` [Compound 4, 2-amino-4-(2′-fluoro-[1,1′-biphenyl]-3-yl)-6-(piperidin-1-yl)pyridine-3,5-dicarbonitrile], the inhibition at 1 µM in experiment [1] (Homo sapiens) and in experiment [2] (Homo sapiens) was > 90% each time.

Regarding `Cc1c(C#N)cccc1-c1cc(-c2cn(Cc3cccc(C(C)(C)O)n3)nn2)nc(N)n1` [Etrumadenant, 3-[2-Amino-6-[1-[[6-(2-hydroxypropan-2-yl)pyridin-2-yl]methyl]triazol-4-yl]pyrimidin-4-yl]-2-methylbenzonitrile, reference compound], the inhibition at 1 µM in experiment [1] (setting [4]) and in experiment [2] (setting [5]) was > 90% each time.

With `N#Cc1c(N)nc(N2CCCCC2)c(C#N)c1-c1cccc(-c2cncc(F)c2)c1` [Compound 27, 2-amino-4-(3-(5-fluoropyridin-3-yl)phenyl)-6-(piperidin-1-yl)pyridine-3,5-dicarbonitrile], the IC50 in experiment [3] is 200 to 1000 nM.

For the compound `Cc1ccc(-c2nc(N)nc3c2nnn3Cc2cccc(CO[C@H]3CCOC3)n2)o1` [Ciforadenant, 7-(5-methylfuran-2-yl)-3-[[6-[[(3S)-oxolan-3-yl]oxymethyl]pyridin-2-yl]methyl]triazolo[4,5-d]pyrimidin-5-amine, reference compound], the inhibition at 1 µM in experiment [1] (setting [4]) and in experiment [2] (setting [5]) was 70 to 90% in each case.

Take `Cc1cc(-c2nnc(N)nc2-c2ccc(F)cc2)cc(Cl)n1` [Imaradenant, 6-(2-chloro-6-methylpyridin-4-yl)-5-(4-fluorophenyl)-1,2,4-triazin-3-amine, reference compound]: the inhibition at 1 µM in experiment [1] (setting [4]) and in experiment [2] (setting [5]) was 40 to 70% in each case.

Consider `N#Cc1c(N)nc(N2CCCCC2)c(C#N)c1-c1cc(F)cc(-c2cccnc2)c1` [Compound 31, 2-amino-4-(3-fluoro-5-(pyridin-3-yl)phenyl)-6-(piperidin-1-yl)pyridine-3,5-dicarbonitrile], for which the values for the inhibition at 1 µM in experiment [1] (setting [4]) and in experiment [2] (setting [5]) were 40 to 70% and 0 to 40%, respectively. The IC50 in experiment [3] is < 200 nM.

Turning to `N#Cc1c(N)nc(N2CCCCC2)c(C#N)c1-c1cccc(-c2ncccc2F)c1` [Compound 24, 2-amino-4-(3-(3-fluoropyridin-2-yl)phenyl)-6-(piperidin-1-yl)pyridine-3,5-dicarbonitrile], the inhibition at 1 µM was 70 to 90% in experiment [1] (setting [4]) and 40 to 70% in experiment [2] (setting [5]). Besides, in experiment [3], the IC50 was < 200 nM.

Regarding `N#Cc1c(N)nc(N2CCCCC2)c(C#N)c1-c1cccc(-c2cccnc2F)c1` [Compound 28, 2-amino-4-(3-(2-fluoropyridin-3-yl)phenyl)-6-(piperidin-1-yl)pyridine-3,5-dicarbonitrile], the inhibition at 1 µM in experiment [1] (setting [4]) was > 90%; in experiment [2] (setting [5]), 70 to 90%. Besides, in experiment [3], the half-inhibitory concentration (IC50) was < 200 nM.

On to `N#Cc1c(N)nc(N2CCCCC2)c(C#N)c1-c1cccc(-c2ccccc2)c1` [Compound 3, 4-([1,1′-biphenyl]-3-yl)-2-amino-6-(piperidin-1-yl)pyridine-3,5-dicarbonitrile], for which the inhibition at 1 µM in experiment [1] (Homo sapiens) and in experiment [2] (Homo sapiens) was > 90% throughout.

For `COCCOc1ccc(N2CCN(CCn3ncc4c3nc(N)n3nc(-c5ccco5)nc43)CC2)cc1` [Preladenant, 4-(furan-2-yl)-10-[2-[4-[4-(2-methoxyethoxy)phenyl]piperazin-1-yl]ethyl]-3,5,6,8,10,11-hexazatricyclo[7.3.0.0^2,6]dodeca-1(9),2,4,7,11-pentaen-7-amine, reference compound], the inhibition at 1 µM in experiment [1] (setting [4]) and in experiment [2] (setting [5]) was 70 to 90% throughout.

`CCOc1nc(N)c(C#N)c(-c2cccc(-c3ccccc3)c2)c1C#N` [Compound 22, 4-([1,1′-biphenyl]-3-yl)-2-amino-6-ethoxypyridine-3,5-dicarbonitrile]: the IC50 in experiment [3] was < 200 nM.

Take `COc1nc(N)c(C#N)c(-c2cccc(-c3ccccc3)c2)c1C#N` [Compound 21, 4-([1,1′-biphenyl]-3-yl)-2-amino-6-methoxypyridine-3,5-dicarbonitrile]: in experiment [3], the IC50 is 200 to 1000 nM.

In the case of `N#Cc1c(N)nc(N2CCCCC2)c(C#N)c1-c1cccc(-c2cccnc2)c1F` [Compound 30, 2-amino-4-(2-fluoro-3-(pyridin-3-yl)phenyl)-6-(piperidin-1-yl)pyridine-3,5-dicarbonitrile], the results for the inhibition at 1 µM in experiment [1] (setting [4]) and in experiment [2] (setting [5]) were 40 to 70% and 0 to 40%, respectively. Also, the IC50 in experiment [3] was < 200 nM.
